Here are results for 16 molecules from patent US12590062B2, “PD-1/PD-L1 inhibitors” (Gilead Sciences, Inc., priority 2017, dated 2026).

The target in one experiment is T1, PD-1/PD-L1 interaction (Homo sapiens, UniProt Q9NZQ7).
T1 construct: expressed in transfected cells; host or cells: CHO cells (aAPC-PD-L1) co-cultured with Jurkat cells overexpressing PD-1 and an NFAT-luciferase reporter
Briefly: PD-1/PD-L1 NFAT reporter co-culture assay. Format: cell-based. The note with it: Jurkat PD-1 NFAT-luciferase cells co-cultured with aAPC-PD-L1 CHO cells, 6 hrs at 37° C.; read-out: EC50 NFAT Luciferase. The gist of the method: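 Compounds are scored by restoration of NFAT-luciferase signal in PD-1-expressing Jurkat cells cultured 6 h at 37 °C on CHO cells presenting anti-CD3 and PD-L1; EC50 values derive from four-parameter curve fitting.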

For the next experiment, the target named is PD-1/PD-L1 (Homo sapiens, UniProt Q9NZQ7). In words: PD-1/PD-L1 biochemical protein-protein interaction assay (ALPHA). The note with it: 0.3 nM His tagged PD-L1, 2.5 nM biotinylated Fc-PD-1, 60 minutes at 25° C., read-out: IC50 PD-L1-PD-1 Alpha IC50-mono PD-L1-fcP-D1. It counts as binding. The procedure:
Biological Activity PD-1/PD-L1 & CTLA/CD80 Biochemical Protein-Protein Interaction Assay
Compounds were tested in biochemical protein-protein interaction assays to determine if they can specifically block the interaction between the extracellular domains of PD-1/PD-L1 or CTLA/CD80. Binding of the protein pairs is measured using a bead based Amplified Luminescent Proximity Homogeneous Assay (ALPHA) platform. Binding of each protein pair results in proximity of the donor and acceptor beads which leads to an increase in ALPHA signal. Disruption of the protein-protein interaction with a test compound results in a decrease in ALPHA signal. Assays are performed in 25 mM Hepes (pH 7.4), 150 mM NaCl, 3.4 mM EDTA, 0.005% Tween 20, and 0.01% BSA. Final protein concentration in the assays were 0.3 nM (His tagged PD-L1), 2.5 nM (biotinylated Fc-PD-1), 1 nM (His tagged CTLA4) and 1 nM (biotinylated CD80). After an assay reaction time of 60 minutes at 25° C., binding was measured with addition of 20 μg/mL ALPHA assay acceptor beads (anti-His coated) and […] ALPHA assay donor beads (streptavidin coated). IC50 values were calculated from the fit of the dose-response curves to a four-parameter equation. Representative data are shown below in Table 1.

PD-1/PD-L1, sequence (Q9NZQ7 19-238 limits assumed): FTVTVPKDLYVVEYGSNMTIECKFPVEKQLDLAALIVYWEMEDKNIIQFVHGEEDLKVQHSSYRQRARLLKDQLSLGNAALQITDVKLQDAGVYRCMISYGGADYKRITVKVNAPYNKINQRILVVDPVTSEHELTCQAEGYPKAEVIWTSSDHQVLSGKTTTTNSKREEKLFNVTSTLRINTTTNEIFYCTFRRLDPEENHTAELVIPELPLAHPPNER
T1 sequence (Q9NZQ7 19-290): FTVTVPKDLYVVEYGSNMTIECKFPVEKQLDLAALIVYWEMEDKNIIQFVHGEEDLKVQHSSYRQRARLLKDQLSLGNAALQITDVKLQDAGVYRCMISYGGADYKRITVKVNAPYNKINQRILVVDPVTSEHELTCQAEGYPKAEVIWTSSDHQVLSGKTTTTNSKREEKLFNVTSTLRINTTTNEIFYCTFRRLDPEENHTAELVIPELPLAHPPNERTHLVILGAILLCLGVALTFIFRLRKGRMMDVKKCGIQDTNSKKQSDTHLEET

On to `COc1nc(OCc2cccc(-c3cccc(COc4ccc(CNCCO)c(OC)n4)c3C)c2C)ccc1CNCCO` [Example 21, 2,2′-((((((2,2′-dimethyl-[1,1′-biphenyl]-3,3′-diyl)bis(methylene))bis(oxy))bis(2-methoxypyridine-6,3-diyl))bis(methylene))bis(azanediyl))bis(ethan-1-ol)], for which the EC50 on PD-1/PD-L1 interaction was 1370 nM. Moreover, on PD-1/PD-L1, the IC50 was found to be 17 nM.
For `Cc1c(COc2cc(OCc3cccnc3)c(CNCCO)cc2Cl)cccc1-c1cccc(COc2cc(OCc3cccnc3)c(CNCCO)cc2Cl)c1C` [Example 22, 2,2′-((((((2,2′-dimethyl-[1,1′-biphenyl]-3,3′-diyl)bis(methylene))bis(oxy))bis(5-chloro-2-(pyridin-3-ylmethoxy)-4,1-phenylene))bis(methylene))bis(azanediyl))bis(ethan-1-ol)] the same measures were 2070 nM and 34.9 nM.
On the same counts, the results for `COc1nc(OCc2cccc(-c3cccc(COc4ccc(CNC[C@H](C)O)c(OC)n4)c3C)c2C)ccc1CNC[C@H](C)O` [Example 23, (2S,2′S)-1,1′-((((((2,2′-dimethyl-[1,1′-biphenyl]-3,3′-diyl)bis(methylene))bis(oxy))bis(2-methoxypyridine-6,3-diyl))bis(methylene))bis(azanediyl))bis(propan-2-ol)] are no less than 50000 nM and 40.6 nM.
On the same counts, the results for `COc1nc(OCc2cccc(-c3cccc(COc4ccc(CNC[C@@H](C)O)c(OC)n4)c3C)c2C)ccc1CNC[C@@H](C)O` [Example 24, (2R,2′R)-1,1′-((((((2,2′-dimethyl-[1,1′-biphenyl]-3,3′-diyl)bis(methylene))bis(oxy))bis(2-methoxypyridine-6,3-diyl))bis(methylene))bis(azanediyl))bis(propan-2-ol)] are 1890 nM and 41.7 nM.
Regarding `N#Cc1cncc(COc2cc(OCc3cccc(-c4cccc(COc5cc(OCc6cncc(C#N)c6)c(CNCCO)cc5Cl)c4)c3)c(Cl)cc2CNCCO)c1` [Example 25, 5,5′-((((([1,1′-biphenyl]-3,3′-diylbis(methylene))bis(oxy))bis(4-chloro-6-(((2-hydroxyethyl)amino)methyl)-3,1-phenylene))bis(oxy))bis(methylene))dinicotinonitrile], the EC50 on PD-1/PD-L1 interaction came to 3760 nM. Besides, the IC50 on PD-1/PD-L1 turned out to be 20.9 nM.
On the same counts, the results for `COc1nc(OCc2cccc(-c3cccc(COc4ccc(CN5C[C@@H](O)CC5=O)c(OC)n4)c3C)c2C)ccc1CNC[C@@H](O)CC(=O)O` [Example 26, (S)-3-hydroxy-4-(((6-((3′-(((5-(((S)-4-hydroxy-2-oxopyrrolidin-1-yl)methyl)-6-methoxypyridin-2-yl)oxy)methyl)-2,2′-dimethyl-[1,1′-biphenyl]-3-y)methoxy)-2-methoxypyridin-3-yl)methyl)amino)butanoic acid] are 18900 nM and 16.2 nM.
On the same counts, the results for `COc1cc(OCc2cccc(-c3cccc(COc4ccc(CNC[C@@H](O)CC(=O)O)c(OC)n4)c3C)c2C)ccc1CNC[C@@H](O)CC(=O)O` [Example 27, (S)-4-(((6-((3′-((4-((((S)-3-carboxy-2-hydroxypropyl)amino)methyl)-3-methoxyphenoxy)methyl)-2,2′-dimethyl-[1,1′-biphenyl]-3-yl)methoxy)-2-methoxypyridin-3-yl)methyl)amino)-3-hydroxybutanoic acid] are 25300 nM and 2.3 nM.
Consider `Cc1c(COc2cc(OCCN3CCOCC3)c(CNCCO)cc2Cl)cccc1-c1cccc(COc2cc(OCCN3CCOCC3)c(CNCCO)cc2Cl)c1C` [Example 28, 2,2′-((((((2,2′-dimethyl-[1,1′-biphenyl]-3,3′-diyl)bis(methylene))bis(oxy))bis(5-chloro-2-(2-morpholinoethoxy)-4,1-phenylene))bis(methylene))bis(azanediyl))bis(ethan-1-ol)], for which, at PD-1/PD-L1 interaction, the EC50 came to 663 nM. The IC50 at PD-1/PD-L1 was found to be 12.7 nM.
For `Cc1c(COc2cc(OCc3cncc(C#N)c3)c(CNC[C@@H](O)CC(=O)O)cc2Br)cccc1-c1cccc(COc2cc(OCc3cncc(C#N)c3)c(CNC[C@@H](O)CC(=O)O)cc2Br)c1C` [Example 33, (3S,3′S)-4,4′-((((((2,2′-dimethyl-[1,1′-biphenyl]-3,3′-diyl)bis(methylene))bis(oxy))bis(5-bromo-2-((5-cyanopyridin-3-yl)methoxy)-4,1-phenylene))bis(methylene))bis(azanediyl))bis(3-hydroxybutanoic acid)] the same measures were 322 nM and 0.4 nM.
On the same counts, the results for `C=Cc1cc(CNCCO)c(OCc2cncc(C#N)c2)cc1OCc1cccc(-c2cccc(COc3cc(OCc4cncc(C#N)c4)c(CNCCO)cc3C=C)c2C)c1C` [Example 36, 5,5′-((((((2,2′-dimethyl-[1,1′-biphenyl]-3,3′-diyl)bis(methylene))bis(oxy))bis(6-(((2-hydroxyethyl)amino)methyl)-4-vinyl-3,1-phenylene))bis(oxy))bis(methylene))dinicotinonitrile] are 1070 nM and 21.6 nM.
For `Cc1c(COc2cc(OCc3cncc(C#N)c3)c(CNC[C@@H](O)CC(=O)O)cc2Br)cccc1-c1cccc(COc2cc(OCc3cncc(C#N)c3)c(CN3C[C@@H](O)CC3=O)cc2Br)c1C` [Example 38, (S)-4-((5-bromo-4-((3′-((2-bromo-5-((5-cyanopyridin-3-yl)methoxy)-4-(((S)-4-hydroxy-2-oxopyrrolidin-1-yl)methyl)phenoxy)methyl)-2,2′-dimethyl-[1,1′-biphenyl]-3-yl)methoxy)-2-((5-cyanopyridin-3-yl)methoxy)benzyl)amino)-3-hydroxybutanoic acid] the same measures were 2670 nM and 2.8 nM.
Turning to `Cc1c(COc2nc(OCc3cncc(S(C)(=O)=O)c3)c(CN[C@](C)(CO)C(=O)O)cc2Br)cccc1-c1cccc(COc2nc(OCc3cncc(S(C)(=O)=O)c3)c(CN[C@](C)(CO)C(=O)O)cc2Br)c1C` [Example 40, (2R,2′R)-2,2′-((((((2,2′-dimethyl-[1,1′-biphenyl]-3,3′-diyl)bis(methylene))bis(oxy))bis(5-bromo-2-((5-(methylsulfonyl)pyridin-3-yl)methoxy)pyridine-6,3-diyl))bis(methylene))bis(azanediyl))bis(3-hydroxy-2-methylpropanoic acid)], the EC50 on PD-1/PD-L1 interaction is 176 nM. At PD-1/PD-L1, the IC50 is 0.1 nM.
On the same counts, the results for `Cc1c(COc2cc(OCc3cncc(C#N)c3)c(CN3C[C@@H](O)C[C@H]3C(=O)O)cc2Cl)cccc1-c1cccc(COc2cc(OCc3cncc(C#N)c3)c(CN3C[C@@H](O)C[C@H]3C(=O)O)cc2Cl)c1C` [Example 58, (2S,2′S,4S,4'S)-1,1′-(((((2,2′-dimethyl-[1,1′-biphenyl]-3,3′-diyl)bis(methylene))bis(oxy))bis(5-chloro-2-((5-cyanopyridin-3-yl)methoxy)-4,1-phenylene))bis(methylene))bis(4-hydroxypyrrolidine-2-carboxylic acid)] are 822 nM and 0.3 nM.
On the same counts, the results for `COc1nc(OCc2cccc(-c3cccc(COc4nc(OC)c(CN5CC[C@H]5C(=O)O)cc4Br)c3C)c2C)c(Br)cc1CN1CC[C@H]1C(=O)O` [Example 59, (2S,2′S)-1,1′-(((((2,2′-dimethyl-[1,1′-biphenyl]-3,3′-diyl)bis(methylene))bis(oxy))bis(5-bromo-2-methoxypyridine-6,3-diyl))bis(methylene))bis(azetidine-2-carboxylic acid)] are 1250 nM and 0.1 nM.
Take `COc1nc(OCc2cccc(-c3cccc(COc4nc(OC)c(CN5CC[C@H]5C(=O)O)cc4Br)c3C)c2C)ccc1CN1CC[C@H]1C(=O)O` [Example 60, (S)-1-((6-((3′-(((3-bromo-5-(((S)-2-carboxyazetidin-1-yl)methyl)-6-methoxypyridin-2-yl)oxy)methyl)-2,2′-dimethyl-[1,1′-biphenyl]-3-yl)methoxy)-2-methoxypyridin-3-yl)methyl)azetidine-2-carboxylic acid]: the EC50 on PD-1/PD-L1 interaction is no less than 50000 nM. Also, the IC50 on PD-1/PD-L1 was found to be 2.3 nM.
In the case of `Cc1c(COc2cc(O)c(CNC[C@@H](O)CC(=O)O)cc2Cl)cccc1-c1cccc(COc2cc(OCc3cncc(C#N)c3)c(CNC[C@@H](O)CC(=O)O)cc2Cl)c1C` [Example 67, (S)-4-((4-((3′-((4-((((S)-3-carboxy-2-hydroxypropyl)amino)methyl)-2-chloro-5-((5-cyanopyridin-3-yl)methoxy)phenoxy)methyl)-2,2′-dimethyl-[1,1′-biphenyl]-3-yl)methoxy)-5-chloro-2-hydroxybenzyl)amino)-3-hydroxybutanoic acid], the EC50 on PD-1/PD-L1 interaction is 1320 nM. Besides, the IC50 at PD-1/PD-L1 turned out to be 1 nM.
